Reference: US6525059B1, “Substituted pyrazoles as p38 kinase inhibitors” (G. D. Searle & Company, priority 1998, dated 2003)
Where “and” joins values, the source holds several entries; their conditions need not be identical. Equal values may be shown once. Where a name gives a salt, the structure may show the parent alone. Read-outs that look alike come from different tables or passages of the source.

Key:
[1] = molecular target: T1, human GST-p38 kinase alpha (Homo sapiens, UniProt Q16539); test: p38 kinase in vitro assay, second format, phosphorylation of EGFRP with 33P-ATP; type: biochemical; settings: read-out: p38α Kinase Assay IC50
T1 construct: The coding region of the human p38a cDNA was obtained by PCR-amplification from RNA isolated from the human monocyte cell line THP.1; made in house; host or cells: E. coli DH10B
T1 sequence (Q16539 whole entry): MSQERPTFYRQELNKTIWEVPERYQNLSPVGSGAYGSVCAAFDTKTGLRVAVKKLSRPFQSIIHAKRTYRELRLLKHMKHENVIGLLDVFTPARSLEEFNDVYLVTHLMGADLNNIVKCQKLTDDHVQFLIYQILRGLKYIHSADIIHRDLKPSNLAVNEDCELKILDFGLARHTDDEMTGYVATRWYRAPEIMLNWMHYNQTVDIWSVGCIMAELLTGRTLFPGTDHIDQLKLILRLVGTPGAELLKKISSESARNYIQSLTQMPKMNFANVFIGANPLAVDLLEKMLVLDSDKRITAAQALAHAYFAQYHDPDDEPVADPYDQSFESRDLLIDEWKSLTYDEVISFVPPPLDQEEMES
Method in brief: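 Activated human GST-p38α (pre-activated with GST-MKK6, 1 h, 30 °C) phosphorylates EGFR 21-mer peptide (200 μM) with 50 μM ATP plus γ-33P-ATP, pH 7.5, 60 min at room temperature. Unreacted ATP removed by AG 1×8 resin; supernatant scintillation-counted.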

TNF-α = test: Rat assay: LPS-challenged rats, serum TNF-α by ELISA; type: in vivo; settings: Rattus norvegicus, po
human TNF = test: TNF inhibition: human whole blood assay; type: cell-based; settings: Homo sapiens, LPS, read-out: TNF Inhibition-Human Whole Blood Assay
[2] = Table 8, dose 1.0 mg/kg, read-out: Rat LPS Assay % Inhibition
[3] = Table 8, dose 5.0 mg/kg, read-out: Rat LPS Assay % Inhibition
[4] = Table 9, dose 1 mg/kg, read-out: Rat LPS Assay % Inhibition
[5] = Table 9, dose 5 mg/kg, read-out: Rat LPS Assay % Inhibition

SMILES | IC50 ([1]; Table 9, 10% DMSO) | inhibition in vivo at 20 mg/kg (TNF-α; Table 9, dose 20 mg/kg) [%] | IC50 (human TNF; Table 9, human whole blood) [nM] | inhibition in vivo at 5 mg/kg (TNF-α; [5]) [%] | further results
CN1CCC(Nc2n[nH]c(-c3ccc(Cl)cc3)c2-c2ccncc2)CC1 [Example A-334, N-[5-(4-chlorophenyl)-4-(4-pyridinyl)-1H-pyrazol-3-yl]-1-methyl-4-piperidinamine] |  |  |  |  | IC50 ([1]; Table 8, 10% DMSO): 70 nM; inhibition in vivo at 1 mg/kg (TNF-α; [2]): 36%; inhibition in vivo at 5 mg/kg (TNF-α; [3]): 57%; inhibition in vivo at 20 mg/kg (TNF-α; Table 8, dose 20.0 mg/kg): 95%; IC50 (human TNF; Table 8, human whole blood): 220 nM
CC(C)C[C@@H](CO)Nc1cc(-c2c[nH]nc2-c2ccc(F)cc2)ccn1 [Example A-354, (2S)-2-[[4-[3-(4-fluorophenyl)-1H-pyrazol-4-yl]-2-pyridinyl]amino]-4-methyl-1-pentanol] | 220 nM | 0 | 25000 |  | 
C#CCn1nc(N2CCNCC2)c(-c2ccncc2)c1-c1ccc(Cl)cc1 [Example A-318, 1-[5-(4-chlorophenyl)-4-(4-pyridinyl)-1-(2-propynyl)-1H-pyrazol-3-yl]piperazine, trihydrochloride monohydrate] |  |  |  |  | IC50 ([1]; Table 8, 10% DMSO): 580 nM and 370 nM and 600 nM; inhibition in vivo at 3 mg/kg (TNF-α; Table 8, dose 3.0 mg/kg, read-out: Rat LPS Assay % Inhibition): 54%; IC50 (human TNF; Table 8, human whole blood): 167 nM
CN1CCN(Cc2n[nH]c(-c3ccc(F)cc3)c2-c2ccncc2)CC1 [A-313, Step 3, 1-[[5-(4-fluorophenyl)-4-(4-pyridinyl)-1H-pyrazol-3-yl]methyl]-4-methylpiperazine] |  |  |  |  | IC50 ([1]; Table 8, 10% DMSO): 370 nM; inhibition in vivo at 20 mg/kg (TNF-α; Table 8, dose 20.0 mg/kg): 96%; IC50 (human TNF; Table 8, human whole blood): 120 nM
OC[C@H](Cc1ccccc1)Nc1cc(-c2c[nH]nc2-c2ccc(F)cc2)ccn1 [Example A-363, (βS)-β-[[4-[3-(4-fluorophenyl)-1H-pyrazol-4-yl]-2-pyridinyl]amino]benzene propanol] | 1500 nM | 6 | 25000 |  | 
CCN(CC)CC(Nc1cc(-c2c[nH]nc2-c2ccc(F)cc2)ccn1)c1ccccc1 (stereo not shown) [Example A-353, N2,N2-diethyl-N1-[4-[3-(4-fluorophenyl)-1H-pyrazol-4-yl]-2-pyridinyl]-1-phenyl-1,2-ethanediamine] | 37 nM | 49 | 5300 |  | 
CCN(CC)CCCC(C)Nc1nccc(-c2c[nH]nc2-c2ccc(F)cc2)n1 (stereo not shown) [Example A-366, N1,N1-diethyl-N4-[4-[3-(4-fluorophenyl)-1H-pyrazol-4-yl]-2-pyrimidinyl]-1,4-pentanediamine] | 41 nM and 60 nM and 40 nM | 92 | 290 | 45 | inhibition in vivo at 1 mg/kg (TNF-α; [4]): 6%
CCOC(=O)N1CCN(c2[nH]nc(-c3ccccc3)c2-c2ccncc2)CC1 [Example A-371, ethyl 4-[5-phenyl-4-(4-pyridinyl)-1H-pyrazol-3-yl]-1-piperazinecarboxylate] | 7900 nM | 52 | 25000 |  | 
Clc1ccc(-c2n[nH]c(OC3CCNCC3)c2-c2ccncc2)cc1 [Example A-442] |  |  |  |  | IC50 ([1]; Table 10, 10% DMSO, @ 1.0 hour): 22 nM; inhibition in vivo at 1 mg/kg (TNF-α; Table 10, dose 1.0 mg/kg, read-out: Rat LPS Assay % Inhibition): 51%; inhibition in vivo at 5 mg/kg (TNF-α; Table 10, dose 5.0 mg/kg, read-out: Rat LPS Assay % Inhibition): 56%; inhibition in vivo at 20 mg/kg (TNF-α; Table 10, dose 20.0 mg/kg): 92%; IC50 (human TNF; Table 10, human whole blood): 160 nM
OC[C@@H](Nc1cc(-c2c[nH]nc2-c2ccc(F)cc2)ccn1)c1ccccc1 [Example A-362, (βS)-β-[[4-[3-(4-fluorophenyl)-1H-pyrazol-4-yl]-2-pyridinyl]amino]benzene ethanol] | 690 nM | 0 | 5500 |  | 
NC1CCN(c2[nH]nc(-c3ccc(F)cc3)c2-c2ccncc2)CC1 [Example A-365, 1-[5-(4-fluorophenyl)-4-(4-pyridinyl)-1H-pyrazol-3-yl]-4-piperidinamine, trihydrochloride] | 32 nM | 95 | 57 | 50 | inhibition in vivo at 1 mg/kg (TNF-α; [4]): 12%
CN(C)C1CCN(c2[nH]nc(-c3ccc(F)cc3)c2-c2ccncc2)CC1 [Example A-360, 1-[5-(4-fluorophenyl)-4-(4-pyridinyl)-1H-pyrazol-3-yl]-N,N-dimethyl-4-piperidinamine, trihydrochloride] | 60 nM | 95 | 500 | 14 | inhibition in vivo at 1 mg/kg (TNF-α; [4]): 0%
Fc1ccc(-c2n[nH]c(N3CCSCC3)c2-c2ccncc2)cc1 [Example A-438] |  |  |  |  | IC50 ([1]; Table 10, 10% DMSO, @ 1.0 hour): 560 nM; inhibition in vivo at 20 mg/kg (TNF-α; Table 10, dose 20.0 mg/kg): 49%; IC50 (human TNF; Table 10, human whole blood): > 25000 nM
CCN(CC)CCCNc1n[nH]c(-c2ccc(F)cc2)c1-c1ccncc1 [Example A-364, N,N-diethyl-N′-[5-(4-fluorophenyl)-4-(4-pyridinyl)-1H-pyrazol-3-yl]-1,3-propanediamine] | 490 nM | 79 | 255 |  | 
CCN(CC)CCCC(C)Nc1cc(-c2c[nH]nc2-c2ccc(F)cc2)ccn1 (stereo not shown) [Example A-377, N1,N1-diethyl-N4-[4-[3-(4-fluorophenyl)-1H-pyrazol-4-yl]-2-pyridinyl]-1,4-pentanediamine] | 4 nM and 1.9 nM | 84 | 670 | 67 | inhibition in vivo at 1 mg/kg (TNF-α; [4]): 32%
CCN(CC)C1CCN(c2n[nH]c(-c3ccc(F)cc3)c2-c2ccncc2)CC1 [Example A-388, 1-[5-(4-fluorophenyl)-4-(4-pyridinyl)-1H-pyrazol-3-yl]-N,N-diethyl-4-piperidinamine, trihydrochloride] | 210 nM | 97 | 340 | 67 | 
C[C@H](O)CNc1cc(-c2c[nH]nc2-c2ccc(F)cc2)ccn1 [Example A-370, (2S)-1-[[4-[3-(4-fluorophenyl)-1H-pyrazol-4-yl]-2-pyridinyl]amino]-2-propanol] | 160 nM | 90 | 1920 | 46 | 
OCC(Nc1cc(-c2c[nH]nc2-c2ccc(F)cc2)ccn1)c1ccccc1 (stereo not drawn) [Example A-376, (βR)-β-[[4-[3-(4-fluorophenyl)-1H-pyrazol-4-yl]-2-pyridinyl]amino]benzene ethanol] | 32 nM | 24 | 1000 |  | 
Fc1ccc(-c2[nH]nc(CN3CCNCC3)c2-c2ccncc2)cc1 [A-314, Step 2, 1-[[5-(4-fluorophenyl)-4-(4-pyridinyl)-1H-pyrazol-3-yl]methyl]-4-piperazine] |  |  |  |  | IC50 ([1]; Table 8, 10% DMSO): 32 nM; inhibition in vivo at 1 mg/kg (TNF-α; [2]): 0%; inhibition in vivo at 5 mg/kg (TNF-α; [3]): 53%; inhibition in vivo at 20 mg/kg (TNF-α; Table 8, dose 20.0 mg/kg): 85%; IC50 (human TNF; Table 8, human whole blood): 470 nM
CCOC(=O)N1CCC(Nc2cc(-c3c[nH]nc3-c3ccc(F)cc3)ccn2)CC1 [Example A-356, ethyl 4-[[4-[3-(4-fluorophenyl)-1H-pyrazol-4-yl]-2-pyridinyl]amino]-1-piperidinecarboxylate] | < 10 nM | 73 | 5300 |  | 
CCN(CC)CCCC(C)Nc1[nH]nc(-c2ccc(F)cc2)c1-c1ccncc1 (stereo not shown) [Example A-359, N1,N1,-diethyl-N4-[5-(4-fluorophenyl)-4-(4-pyridinyl)-1H-pyrazol-3-yl]-1,4-pentanediamine] | 300 nM | 70 | 1000 |  | 
CC(C)C(CO)Nc1cc(-c2c[nH]nc2-c2ccc(F)cc2)ccn1 (stereo not shown) [Example A-355, 2-[[4-[3-(4-fluorophenyl)-1H-pyrazol-4-yl]-2-pyridinyl]amino]-3-methyl-1-butanol] | 50 nM |  | 95 |  | inhibition in vivo at 26 mg/kg (TNF-α; Table 9, dose 26 mg/kg): 0%
CCN(CC)CCCC(C)Nc1cc(-c2c[nH]nc2-c2ccc(Cl)cc2)ccn1 (stereo not shown) [Example A-369, N4-[4-[3-(4-chlorophenyl)-1H-pyrazol-4-yl]-2-pyridinyl]-N1,N1-diethyl-1,4-pentanediamine] | 19 nM and 11 nM and 2.7 nM | 94 | 840 | 52 | 
Fc1ccc(-c2n[nH]cc2-c2ccnc(NCC3CCNCC3)c2)cc1 [Example A-351, 4-[3-(4-fluorophenyl)-1H-pyrazol-4-yl]-N-(4-piperidinylmethyl)-2-pyridinamine] | 270 nM | 0 | 490 |  | 
C[C@@H](O)CNc1cc(-c2c[nH]nc2-c2ccc(F)cc2)ccn1 [Example A-368, (2R)-1-[[4-[3-(4-fluorophenyl)-1H-pyrazol-4-yl]-2-pyridinyl]amino]-2-propanol] | 42 nM | 88 | 660 | 41 | inhibition in vivo at 1 mg/kg (TNF-α; [4]): 28%
CN1CCN(c2n[nH]c(-c3ccc(F)cc3)c2-c2ccncc2)CC1 [Example A-317, 1-[5-(4-fluorophenyl)-4-(4-pyridinyl)-1H-pyrazol-3-yl]-4-methylpiperazine, dihydrate] |  |  |  |  | IC50 ([1]; Table 8, 10% DMSO): 70 nM; inhibition in vivo at 10 mg/kg (TNF-α; Table 8, dose 10.0 mg/kg): 69%; IC50 (human TNF; Table 8, human whole blood): 450 nM
